Tests used:
Assay in all cases: relative viability (nuclei count vs DMSO), 5 days (fraction); higher = more cells survive
NCI-H2170 = tested on: NCI-H2170
Method in brief: (§1)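 After 5 days of treatment, lung cancer cells in 1536-well plates were fixed and stained in a single step (final 0.05% Triton X-100, 1% formaldehyde, 1 ug/ml Hoechst) and their nuclei counted on 4× images. Treatment had been applied by pin tool the day after seeding as one drug alone or as a fixed anchor-drug dose with five library-drug doses (not always all listed) in √10 steps. Relative viability is the nuclei count of treated wells divided by that of vehicle wells, and values are medians of duplicate plates.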

NCI-H3122 = tested on: NCI-H3122
Method in brief: as §1

NCI-H1993 = tested on: NCI-H1993
Method in brief: as §1

HARA = tested on: HARA
Method in brief: as §1

NCI-H1944 = tested on: NCI-H1944
Method in brief: as §1

PC-3 [JPC-3] = tested on: PC-3 [JPC-3]
Method in brief: as §1

EMC-BAC-2 = tested on: EMC-BAC-2
Method in brief: as §1

NCI-H2228 = tested on: NCI-H2228
Method in brief: as §1

NCI-H322M = tested on: NCI-H322M
Method in brief: as §1

SK-MES-1 = tested on: SK-MES-1
Method in brief: as §1

NCI-H596 = tested on: NCI-H596
Method in brief: as §1

HOP-62 = tested on: HOP-62
Method in brief: as §1

A-427 = tested on: A-427
Method in brief: as §1

LK-2 = tested on: LK-2
Method in brief: as §1

SW 1573 = tested on: SW 1573
Method in brief: as §1

LXF-289 = tested on: LXF-289
Method in brief: as §1

ABC-1 = tested on: ABC-1
Method in brief: as §1

NCI-H2009 = tested on: NCI-H2009
Method in brief: as §1

NCI-H727 = tested on: NCI-H727
Method in brief: as §1

SW 900 = tested on: SW 900
Method in brief: as §1

In the case of `Cc1sc2c(c1C)C(c1ccc(Cl)cc1)=N[C@@H](CC(=O)OC(C)(C)C)c1nnc(C)n1-2` [JQ1] + COc1cc2c(Oc3ccc(NC(=O)C4(C(=O)Nc5ccc(F)cc5)CC4)cc3F)ccnc2cc1OCCCN1CCOCC1 [Foretinib] (partner 0.25 µM), the relative viability (NCI-H2170; first compound 0.04 µM) is reported as 1.03, the relative viability (NCI-H2170; first compound 0.1265 µM) is reported as 0.928 and the relative viability (NCI-H2170; first compound 0.4 µM) is reported as 0.837. It also gave a relative viability (NCI-H2170; first compound 1.265 µM) of 0.762, a relative viability (NCI-H2170; first compound 4 µM) of 0.626 and a relative viability (NCI-H3122; first compound 0.04 µM) of 1.04. It also gave a relative viability (NCI-H3122; first compound 0.1265 µM) of 0.814, a relative viability (NCI-H3122; first compound 0.4 µM) of 0.766 and a relative viability (NCI-H3122; first compound 1.265 µM) of 0.698. It also gave a relative viability (NCI-H3122; first compound 4 µM) of 0.532, a relative viability (NCI-H1993; first compound 0.04 µM) of 0.794 and a relative viability (NCI-H1993; first compound 0.1265 µM) of 0.794. The relative viability (NCI-H1993; first compound 0.4 µM) was 0.682, the relative viability (NCI-H1993; first compound 1.265 µM) was 0.692 and the relative viability (NCI-H1993; first compound 4 µM) was 0.738. For the same compound, the relative viability (HARA; first compound 0.04 µM) was 0.89, the relative viability (HARA; first compound 0.1265 µM) was 0.647 and the relative viability (HARA; first compound 0.4 µM) was 0.572. The relative viability (HARA; first compound 1.265 µM) was 0.343, the relative viability (HARA; first compound 4 µM) was 0.227 and the relative viability (NCI-H1944; first compound 0.04 µM) was 0.797. For the same compound, the relative viability (NCI-H1944; first compound 0.1265 µM) was 0.792, the relative viability (NCI-H1944; first compound 0.4 µM) was 0.513 and the relative viability (NCI-H1944; first compound 1.265 µM) was 0.441. For the same compound, the relative viability (NCI-H1944; first compound 4 µM) was 0.425, the relative viability (PC-3 [JPC-3]; first compound 0.04 µM) was 1.06 and the relative viability (PC-3 [JPC-3]; first compound 0.1265 µM) was 1.05. The relative viability (PC-3 [JPC-3]; first compound 0.4 µM) was 0.75, the relative viability (PC-3 [JPC-3]; first compound 1.265 µM) was 0.74 and the relative viability (PC-3 [JPC-3]; first compound 4 µM) was 0.48. For the same compound, the relative viability (EMC-BAC-2; first compound 0.04 µM) was 1.04, the relative viability (EMC-BAC-2; first compound 0.1265 µM) was 0.868 and the relative viability (EMC-BAC-2; first compound 0.4 µM) was 0.584. It also gave a relative viability (EMC-BAC-2; first compound 1.265 µM) of 0.376, a relative viability (EMC-BAC-2; first compound 4 µM) of 0.556 and a relative viability (NCI-H2228; first compound 0.04 µM) of 0.806. It also gave a relative viability (NCI-H2228; first compound 0.1265 µM) of 0.766, a relative viability (NCI-H2228; first compound 0.4 µM) of 0.647 and a relative viability (NCI-H2228; first compound 1.265 µM) of 0.481. The relative viability (NCI-H2228; first compound 4 µM) was 0.383, the relative viability (NCI-H322M; first compound 0.04 µM) was 0.955 and the relative viability (NCI-H322M; first compound 0.1265 µM) was 1.15. For the same compound, the relative viability (NCI-H322M; first compound 0.4 µM) was 0.753, the relative viability (NCI-H322M; first compound 1.265 µM) was 0.513 and the relative viability (NCI-H322M; first compound 4 µM) was 0.441. For the same compound, the relative viability (SK-MES-1; first compound 0.04 µM) was 0.817, the relative viability (SK-MES-1; first compound 0.1265 µM) was 0.642 and the relative viability (SK-MES-1; first compound 0.4 µM) was 0.675. It also gave a relative viability (SK-MES-1; first compound 1.265 µM) of 0.359, a relative viability (SK-MES-1; first compound 4 µM) of 0.333 and a relative viability (NCI-H596; first compound 0.04 µM) of 0.951. For the same compound, the relative viability (NCI-H596; first compound 0.1265 µM) was 0.61, the relative viability (NCI-H596; first compound 0.4 µM) was 0.466 and the relative viability (NCI-H596; first compound 1.265 µM) was 0.322. The relative viability (NCI-H596; first compound 4 µM) was 0.225, the relative viability (HOP-62; first compound 0.04 µM) was 0.982 and the relative viability (HOP-62; first compound 0.1265 µM) was 0.848. It also gave a relative viability (HOP-62; first compound 0.4 µM) of 0.348, a relative viability (HOP-62; first compound 1.265 µM) of 0.241 and a relative viability (HOP-62; first compound 4 µM) of 0.124. The relative viability (A-427; first compound 0.04 µM) was 1.01, the relative viability (A-427; first compound 0.1265 µM) was 0.988 and the relative viability (A-427; first compound 0.4 µM) was 0.913. It also gave a relative viability (A-427; first compound 1.265 µM) of 0.908, a relative viability (A-427; first compound 4 µM) of 0.636 and a relative viability (LK-2; first compound 0.04 µM) of 1.21. It also gave a relative viability (LK-2; first compound 0.1265 µM) of 1.04, a relative viability (LK-2; first compound 0.4 µM) of 0.325 and a relative viability (LK-2; first compound 1.265 µM) of 0.226. The relative viability (LK-2; first compound 4 µM) was 0.221, the relative viability (SW 1573; first compound 0.04 µM) was 0.907 and the relative viability (SW 1573; first compound 0.1265 µM) was 0.837. The relative viability (SW 1573; first compound 0.4 µM) was 0.777, the relative viability (SW 1573; first compound 1.265 µM) was 0.439 and the relative viability (SW 1573; first compound 4 µM) was 0.384. It also gave a relative viability (LXF-289; first compound 0.04 µM) of 0.955, a relative viability (LXF-289; first compound 0.1265 µM) of 0.978 and a relative viability (LXF-289; first compound 0.4 µM) of 0.762. For the same compound, the relative viability (LXF-289; first compound 1.265 µM) was 0.758, the relative viability (LXF-289; first compound 4 µM) was 0.69 and the relative viability (ABC-1; first compound 0.04 µM) was 0.916. For the same compound, the relative viability (ABC-1; first compound 0.1265 µM) was 0.859, the relative viability (ABC-1; first compound 0.4 µM) was 0.89 and the relative viability (ABC-1; first compound 1.265 µM) was 0.395. The relative viability (ABC-1; first compound 4 µM) was 0.399, the relative viability (NCI-H2009; first compound 0.04 µM) was 1.06 and the relative viability (NCI-H2009; first compound 0.1265 µM) was 0.801. It also gave a relative viability (NCI-H2009; first compound 0.4 µM) of 0.786, a relative viability (NCI-H2009; first compound 1.265 µM) of 0.413 and a relative viability (NCI-H2009; first compound 4 µM) of 0.352. The relative viability (NCI-H727; first compound 0.04 µM) was 0.841, the relative viability (NCI-H727; first compound 0.1265 µM) was 0.864 and the relative viability (NCI-H727; first compound 0.4 µM) was 0.537. It also gave a relative viability (NCI-H727; first compound 1.265 µM) of 0.336, a relative viability (NCI-H727; first compound 4 µM) of 0.438 and a relative viability (SW 900; first compound 0.04 µM) of 0.699. The relative viability (SW 900; first compound 0.1265 µM) was 1.06, the relative viability (SW 900; first compound 0.4 µM) was 0.377 and the relative viability (SW 900; first compound 1.265 µM) was 0.224. For the same compound, the relative viability (SW 900; first compound 4 µM) was 0.188.
